US4251539A, “Amino derivatives of 3-alkyl-5-(2-hydroxystyryl)-isoxazoles” (BASF Aktiengesellschaft, priority 1978, dated 1981)

Legend:
[1] = test system: blood pressure in the carotid artery; experiment: animal or person; settings: for ED20: Rattus norvegicus, iv, read-out: Blood pressure-lowering action ED 20%; for animals died: 10 mg/kg, rats
Experimental: 2. Blood pressure-lowering action on narcotized rats.
The blood pressure in the carotid artery is measured by means of a Statham transducer.
(2) Intravenous administration to rats under urethane narcosis. ED 20% =
dose, in mg/kg, which lowers the blood pressure by 20%.

in vivo = settings: for LD 50 / toxicity compared with propranolol (in words): i.p., mice
Description: 4. Acute toxicity in mice
The period of observation is 1 week.
(4) Intraperitoneal administration to mice.

[2] = test system: isoproterenol-induced tachycardia; settings: for ED50: Felis catus, read-out: β-Sympatholytic action ED 50%; for ED50 / β-Sympatholytic action R.A. (relative activity): iv; for β-Sympatholytic action R.A. (relative activity) / β-sympatholytic activity (in words): in vivo
systolic blood pressure = experiment: Anti-hypertensive action on spontaneously hypertonic rats (oral); type: in vivo, male spontaneously hypertonic Okamoto rats
Experimental: 3. Anti-hypertensive action on spontaneously hypertonic rats.
The substances are administered orally to groups of 8 male spontaneously hypertonic Okamoto rats (weight 280-350 g). Before, and two hours after, the administration the systolic blood pressure is measured non-surgically on the rats' tails by means of piezoelectric crystal sensors.

[3] = test system: blood pressure in the carotid artery; settings: general statement, no test or species given; cited from earlier work
[4] = 0.001 mg/kg i.v., cats under hexobarbital narcosis, average

SMILES | ED20 [1] [mg/kg] | LD 50 / toxicity compared with propranolol (in words) (in vivo) | ED50 [2] [mg/kg] | β-Sympatholytic action R.A. (relative activity) [2] | other results
C#CC(C)(C)NCC(O)COc1ccccc1C=Cc1cc(C)no1 (stereo not drawn) [Example 13, 3-Methyl-5-[2-(2-hydroxy-3-(3-methyl-but-1-ynyl-3-amino)-propoxy)-styryl]-isoxazole] | 1 | more than twice as high as that of propranolol | 0.017 | 6.5 | –
CCc1cc(C=Cc2ccccc2OCC(O)CNC2CC2)on1 (stereo not drawn) [Example 5, 3-Ethyl-5-[2-(2-hydroxy-3-cyclopropylaminopropoxy)-styryl]-isoxazole] | 0.83 | of the same toxicity, or somewhat more toxic | 0.12 | 0.9 | LD50 at 168 h (in vivo; mouse, in vivo, ip): 95 mg/kg
CC(C)NCC(O)COc1cccc2ccccc12 (stereo not drawn) [Propranolol, reference compound] | – | – | 0.11 | – | animals died ([1]; i.v.): 2 out of 6; anti-hypertensive action, oral (in words) (systolic blood pressure; oral, spontaneously hypertonic rats, propranolol up to a dose of 100 mg/kg): ineffective; anti-hypertensive action of conventional β-sympatholytic agents (in words) [3]: only exhibit an anti-hypertensive action on lengthy administration
Cc1cc(C=Cc2ccccc2OCC(O)CNC(C)(C)C)on1 (stereo not drawn) [Example 3, 3-Methyl-5-[2-(2-hydroxy-3-tert.-butylaminopropoxy)-styryl]-isoxazole] | 0.4 | somewhat higher than that of propranolol | 0.0055 | – | animals died ([1]; i.v.): 1 out of 6; Blood pressure-lowering action ED 20% ([1]; i.v., rats under urethane narcosis, dose lowering mean carotid artery pressure by 20%): 0.40 mg/kg; ED20 (systolic blood pressure; Rattus norvegicus, po, 2 h, read-out: Anti-hypertensive action ED 20%): 14.5 mg/kg
Cc1cc(C=Cc2ccccc2OCC(O)CNC(C)C)on1 (stereo not drawn) [Example 1, 3-Methyl-5-[2-(2-hydroxy-3-isopropyl-aminopropoxy)-styryl]-isoxazole] | 0.65 | of the same toxicity, or somewhat more toxic | 0.0077 | – | β-sympatholytic activity (in words) [2]: high activity
CC(C)NCC(O)c1ccc(O)c(O)c1 (stereo not drawn) [isoproterenol, reference compound] | – | – | – | – | increase of pulse rate [2, 4]: 61 beats; increase of pulse rate, percent [2, 4]: 40%
CCc1cc(C=Cc2ccccc2OCC(O)CNC(C)(C)C)on1 (stereo not drawn) [Example 6, 3-Ethyl-5-[2-(2-hydroxy-3-tert.-butylaminopropoxy)-styryl]-isoxazole] | 0.93 | of the same toxicity, or somewhat more toxic | 0.018 | 6.1 | β-sympatholytic activity (in words) [2]: high activity
